Laboratory results as given in ChEMBL document CHEMBL5241067, “An insight in anti-malarial potential of indole scaffold: A review” (Eur J Med Chem, 2021).
In brackets after ≈: the same amount, converted by molar mass. One block for each compound: values may come before it.

What was measured:
Plasmodium falciparum [1] = experiment: Antiplasmodial activity against multidrug resistant Plasmodium falciparum K1 assessed as growth inhibition; assay type: functional, organism-based
Plasmodium berghei = experiment: In vivo antimalarial activity against Plasmodium berghei infected in mouse assessed as supression of parasitemia at 20 to 25 mg/kg, po measured for 4 days; assay type: functional; details: dose 20-25 mg/kg, time 4 day
Plasmodium falciparum [2] = experiment: Antiplasmodial activity against Plasmodium falciparum DD2 assessed as growth inhibition; assay type: functional, organism-based
Plasmodium falciparum [3] = experiment: Antiplasmodial activity against Plasmodium falciparum NF54 assessed as growth inhibition; assay type: functional, organism-based
Plasmodium falciparum [4] = experiment: Antiplasmodial activity against chloroquine-resistant Plasmodium falciparum DD2 assessed as growth inhibition; assay type: functional, organism-based
Plasmodium falciparum [5] = experiment: Antiplasmodial activity against multidrug-resistant Plasmodium falciparum assessed as growth inhibition; assay type: functional
Plasmodium falciparum [6] = experiment: Antiplasmodial activity against chloroquine, pyrimethamine and mefloquine-resistant Plasmodium falciparum assessed as growth inhibition; assay type: functional, organism-based
Plasmodium falciparum [7] = experiment: Antimalarial activity against […] Plasmodium falciparum D6 assessed as growth inhibition; assay type: functional, organism-based
Plasmodium falciparum [8] = experiment: Antimalarial activity against chloroquine-resistant Plasmodium falciparum W2 assessed as growth inhibition; assay type: functional, organism-based
[9] = Cytotoxicity against HEK293 cells; assay type: toxicity, cell-based; details: human
Plasmodium falciparum [10] = experiment: Antiplasmodial activity against Plasmodium falciparum; assay type: functional, organism-based
KB = experiment: Cytotoxicity against human KB cells; assay type: functional; details: read-out: ED50 (the source's name)

Compound: Cn1c2c3cc(Br)ccc3nc-2cc2cc(Br)ccc21
- IC50 (Plasmodium falciparum [1]): 50 nM
- Activity (Plasmodium berghei): 89%

Compound: O=C1c2cc(Br)ccc2-n2c1nc1cc(Cl)ccc1c2=O
- IC50 (Plasmodium falciparum [2]): 238 nM
- IC50 (Plasmodium falciparum [3]): 36 nM

Compound: O=C1c2ccccc2-n2c1nc1ccccc1c2=O [TRYPTANTHRIN]
- IC50 (Plasmodium falciparum [4]): 114 nM
- Activity (Plasmodium falciparum [5]): 100 ng/mL
- IC50 (Plasmodium falciparum [3]): 288 nM
- IC50 (Plasmodium falciparum [6]): 0.069 µg/mL (≈ 0.278 µM)

Compound: N#Cc1c(-c2ccc(F)c(F)c2)cc(-c2ccc(F)cc2)nc1-c1c[nH]c2ccccc12
- IC50 (Plasmodium falciparum [7]): 6.78 µM
- IC50 (Plasmodium falciparum [8]): 3820 nM

Compound: N#Cc1c(-c2ccc(F)c(F)c2)cc(-c2ccc(Br)cc2)nc1-c1c[nH]c2ccccc12
- IC50 (Plasmodium falciparum [7]): 6.6 µM
- IC50 (Plasmodium falciparum [8]): 4770 nM

Compound: O=C1c2cc(F)ccc2-n2c1nc1ccccc1c2=O
- IC50 (Plasmodium falciparum [2]): 100 nM
- IC50 (Plasmodium falciparum [3]): 57 nM

Compound: CC1(C)[C@H](Cc2[nH]c3ccccc3c2CC[N+](C)(C)O)O[C@]23OC[C@H](O)[C@H]2OC(=O)[C@]13O
- IC50 [9]: 80 nM

- IC50 (Plasmodium falciparum [10]): 3.4 µM
Compound: O=C1NCCc2c[nH]c3ccc4c(c23)[C@@H]1[C@H](c1ccc2c(c1)OCO2)O4
- EC50 (KB): 23.9 µM

Compound: Cc1cc(-c2cc(-c3ccc(F)cc3)nc(-c3c[nH]c4ccccc34)c2C#N)cc(C)c1C
- IC50 (Plasmodium falciparum [7]): 5.4 µM
- IC50 (Plasmodium falciparum [8]): 2960 nM

Compound: O=C1c2cc(Br)ccc2-n2c1nc1ccc(Cl)cc1c2=O
- IC50 (Plasmodium falciparum [2]): 123 nM
- IC50 (Plasmodium falciparum [3]): 36 nM

Compound: Cc1cc(-c2cc(-c3ccccc3)nc(-c3c[nH]c4ccccc34)c2C#N)cc(C)c1C
- IC50 (Plasmodium falciparum [7]): 1.6 µM
- IC50 (Plasmodium falciparum [8]): 2700 nM

Compound: O=C1c2cc([N+](=O)[O-])ccc2-n2c1nc1cc(Cl)ccc1c2=O
- IC50 (Plasmodium falciparum [2]): 31 nM
- IC50 (Plasmodium falciparum [3]): 33 nM

Compound: N#Cc1c(-c2ccc(F)c(F)c2)cc(-c2ccccc2)nc1-c1c[nH]c2ccccc12
- IC50 (Plasmodium falciparum [7]): 1.56 µM
- IC50 (Plasmodium falciparum [8]): 1160 nM

Compound: N#Cc1c(-c2ccc(F)cc2)cc(-c2ccccc2)nc1-c1c[nH]c2ccccc12
- IC50 (Plasmodium falciparum [7]): 1.47 µM
- IC50 (Plasmodium falciparum [8]): 2990 nM
